Among the data in patent US20230027985A1, “SUBSTITUTED HYDANTOINAMIDES AS ADAMTS7 ANTAGONISTS” (Bayer Aktiengesellschaft, priority 2019, published 2023) are IC50 values, retold here.

The structures appear in SMILES notation.

As a reminder, the IC50 is the midpoint of a concentration-inhibition curve.

Assay [1] concerns the target T1, Purified recombinant ADAMTS-7 (rat prodomain/human catalytic domain, SEQ ID No. 01 or 02) (Homo sapiens, UniProt Q9UKP4).
T1 construct: rat ADAMTS-7 signal peptide + prodomain (rat 1-217, Q1EHB3) (N); 2xStrep tag (C); 6xHis tag (C); made in house; host or cells: Expi293 cells
T1 sequence (Q9UKP4 237-537): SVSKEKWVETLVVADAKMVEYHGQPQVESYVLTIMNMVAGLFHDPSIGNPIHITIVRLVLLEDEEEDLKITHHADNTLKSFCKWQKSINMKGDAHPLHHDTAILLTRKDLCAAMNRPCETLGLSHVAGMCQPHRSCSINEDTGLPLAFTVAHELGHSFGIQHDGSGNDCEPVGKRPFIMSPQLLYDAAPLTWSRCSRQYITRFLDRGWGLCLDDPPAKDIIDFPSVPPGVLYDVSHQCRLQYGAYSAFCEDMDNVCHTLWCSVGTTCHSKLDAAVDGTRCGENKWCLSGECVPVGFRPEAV
The assay is described as follows: Assay for ADAMTS-7 enzymatic activity (FRET substrate cleavage). The format is biochemical. The note with it: FRET substrate SEQ ID No. 11, 120 min at 32° C.; read-out: ADAMTS7-IC50. In outline:
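About 20 nM enzyme in 20 mM HEPES pH 8.0, 150 mM NaCl, 5 mM CaCl2, 0.004% Brij and 10 μM ZnCl2 was mixed with compound in DMSO and a QXL520-quenched FRET peptide from thrombospondin-1 (275-289). After 120 min at 32 °C, fluorescence was read at 485/520 nm. IC50 came from percent inhibition versus concentration.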

The target in the next assay is T2, ADAMTS4 (Homo sapiens, UniProt O75173).
T2 construct: purchased R&D 4307-AD
T2 sequence (O75173 213-685 limits assumed): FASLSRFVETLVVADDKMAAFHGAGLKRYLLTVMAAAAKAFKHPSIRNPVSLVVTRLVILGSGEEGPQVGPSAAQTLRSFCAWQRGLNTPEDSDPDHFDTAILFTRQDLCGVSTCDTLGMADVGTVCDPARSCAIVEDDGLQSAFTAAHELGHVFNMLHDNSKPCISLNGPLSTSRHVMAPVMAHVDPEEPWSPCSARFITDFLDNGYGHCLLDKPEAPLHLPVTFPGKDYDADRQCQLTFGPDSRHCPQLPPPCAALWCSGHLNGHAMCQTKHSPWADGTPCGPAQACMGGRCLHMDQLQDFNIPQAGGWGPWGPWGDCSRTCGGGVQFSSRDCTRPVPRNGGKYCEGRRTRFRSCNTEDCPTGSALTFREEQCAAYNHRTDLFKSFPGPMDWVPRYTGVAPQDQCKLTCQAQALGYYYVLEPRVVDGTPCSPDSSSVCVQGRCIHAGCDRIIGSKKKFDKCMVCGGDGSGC
The assay is described as follows: Selectivity assay for ADAMTS-7 modulators (FRET), ADAMTS4. It is filed as biochemical. To be noted: 50 nM enzyme (R&D 4307-AD), 1 μM Dabcyl/Edans FRET substrate, 120 min at 32° C. The procedure, abridged:
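Enzyme in 50 mM Tris pH 7.5, 150 mM NaCl, 10 mM CaCl2, 0.05% Brij, preincubated with compound in DMSO; reaction started with FRET substrate. Fluorescence increase read after 120 min at 32° C; IC50 from percent inhibition versus compound concentration.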

As to `CC(C)C1(CNC(=O)c2cnn(-c3ccccc3)n2)NC(=O)NC1=O` (racemic) [Example 48, rac-N-[(2,5-dioxo-4-(propan-2-yl)imidazolidin-4-yl)methyl]-2-phenyl-2H-1,2,3-triazole-4-carboxamide], the IC50 in assay [1] was 265 nM; at ADAMTS4, 14500 nM.

On to `O=C1NC(=O)C(CNC(=O)c2nc(-c3ccccc3)no2)(CC2CC2)N1` (stereo not drawn) [Example 80, ent-N-[(4-(cyclopropylmethyl)-2,5-dioxoimidazolidin-4-yl)methyl]-3-phenyl-1,2,4-oxadiazole-5-carboxamide], for which the IC50 was 250 nM in assay [1] and 2900 nM on ADAMTS4.

For `CC(C)C1(CNC(=O)c2cnn(-c3cccc(F)c3)n2)NC(=O)NC1=O` (racemic) [Example 118, rac-2-(3-fluorophenyl)-N-[(4-isopropyl-2,5-dioxoimidazolidin-4-yl)methyl]-2H-1,2,3-triazole-4-carboxamide], the IC50 in assay [1] stood at 46 nM; at ADAMTS4 it was 4500 nM.

With `Cc1scnc1C1(CNC(=O)c2cnn(-c3ccc(F)cc3)n2)NC(=O)NC1=O` (single isomer, unassigned; ent-2) [Example 103], the IC50 in assay [1] stood at 2 nM; against ADAMTS4, 200 nM.

As to `CC1(C)CC1C1(CNC(=O)c2cnn(-c3ccccc3)n2)NC(=O)NC1=O` (racemic) [Example 150, ent-N-({4-[rac-2,2-dimethylcyclopropyl]-2,5-dioxoimidazolidin-4-yl}methyl)-2-phenyl-2H-1,2,3-triazole-4-carboxamide], the IC50 in assay [1] turned out to be 38 nM; against ADAMTS4 it was 2000 nM.

As to `CS(=O)(=O)c1ccc(-n2ncc(C(=O)NC[C@@]3(C4CC4)NC(=O)NC3=O)n2)cc1` [Example 28, N-{[(4R)-4-cyclopropyl-2,5-dioxoimidazolidin-4-yl]methyl}-2-[4-(methylsulfonyl)phenyl]-2H-1,2,3-triazole-4-carboxamide], the IC50 came out at 870 nM in assay [1] and 67000 nM against ADAMTS4.

`CCCCC1(CNC(=O)c2cnn(-c3ccc(F)cc3)n2)NC(=O)NC1=O` (racemic) [Example 68, rac-N-[(4-butyl-2,5-dioxoimidazolidin-4-yl)methyl]-2-(4-fluorophenyl)-2H-1,2,3-triazole-4-carboxamide]: the results for the IC50 (in assay [1]; against ADAMTS4) were 120 nM and 8300 nM, respectively.

As to `O=C1NC(=O)C(CNC(=O)c2cnn(-c3ccccc3)n2)(c2ccncc2)N1` (racemic) [Example 21, rac-N-{[2,5-dioxo-4-(pyridin-4-yl)imidazolidin-4-yl]methyl}-2-phenyl-2H-1,2,3-triazole-4-carboxamide], the IC50 in assay [1] stood at 200 nM; on ADAMTS4, 2800 nM.

As to `O=C1NC(=O)[C@](CNC(=O)c2cnn(-c3ccccc3Cl)n2)(C2CC2)N1` [Example 11, 2-(2-chlorophenyl)-N-{[(4R)-4-cyclopropyl-2,5-dioxoimidazolidin-4-yl]methyl}-2H-1,2,3-triazole-4-carboxamide], the results for the IC50 (in assay [1]; against ADAMTS4) were 470 nM and 10000 nM, respectively.

Take `O=C1NC(=O)C(CNC(=O)c2cnn(-c3ccc(F)cc3)n2)(c2ccnn2CC(F)(F)F)N1` (racemic) [Example 133, rac-N-({2,5-dioxo-4-[1-(2,2,2-trifluoroethyl)-1H-pyrazol-5-yl]imidazolidin-4-yl}methyl)-2-(4-fluorophenyl)-2H-1,2,3-triazole-4-carboxamide]: the figures for the IC50 (in assay [1]; against ADAMTS4) were 50 nM and 3200 nM, respectively.

Regarding `CC(C)C1(CNC(=O)c2cnn(-c3ccc(F)cc3F)n2)NC(=O)NC1=O` (racemic) [Example 87, rac-2-(2,4-difluorophenyl)-N-[(4-isopropyl-2,5-dioxoimidazolidin-4-yl)methyl]-2H-1,2,3-triazole-4-carboxamide], the IC50 in assay [1] stood at 98 nM; at ADAMTS4, 20000 nM.

With `O=C1NC(=O)C(CNC(=O)c2cnn(-c3ccc(Cl)c(F)c3)n2)(c2nccs2)N1` (single isomer, unassigned; ent-2) [Example 110, ent-2-(4-chloro-3-fluorophenyl)-N-{[2,5-dioxo-4-(1,3-thiazol-2-yl)imidazolidin-4-yl]methyl}-2H-1,2,3-triazole-4-carboxamide], the IC50 in assay [1] is 5 nM; at ADAMTS4, 400 nM.

Consider `O=C1NC(=O)C(CNC(=O)c2cnn(-c3ccc(F)cc3)n2)(C2CCOCC2)N1` (racemic) [Example 67, rac-2-(4-fluorophenyl)-N-[4-(oxan-4-yl)-2,5-dioxoimidazolidin-4-yl)methyl]-2H-1,2,3-triazole-4-carboxamide], for which the results for the half-inhibitory concentration (IC50) (in assay [1]; against ADAMTS4) were 260 nM and 9300 nM, respectively.

In the case of `Cn1ccnc1C1(CNC(=O)c2cnn(-c3cc(F)c(F)c(F)c3)n2)NC(=O)NC1=O` (racemic) [Example 143, rac-N-{[4-(1-methyl-1H-imidazol-2-yl)-2,5-dioxoimidazolidin-4-yl]methyl}-2-(3,4,5-trifluorophenyl)-2H-1,2,3-triazole-4-carboxamide], the IC50 in assay [1] came to 5 nM; at ADAMTS4 it was 200 nM.

On to `O=C1NC(=O)C(CNC(=O)c2cnn(-c3ccccc3)n2)(C2CCC2)N1` (stereo not drawn) [Example 79, ent-N-[(4-cyclobutyl-2,5-dioxoimidazolidin-4-yl)methyl]-2-phenyl-2H-1,2,3-triazole-4-carboxamide], for which the values for the IC50 (in assay [1]; against ADAMTS4) were 78 nM and 11000 nM, respectively.

For the molecule `O=C1NC(=O)C(CNC(=O)c2cnn(-c3ccc(F)cc3)n2)(C2CC(F)(F)C2)N1` (racemic) [Example 155, rac-N-{[4-(3,3-difluorocyclobutyl)-2,5-dioxoimidazolidin-4-yl]methyl}-2-(4-fluorophenyl)-2H-1,2,3-triazole-4-carboxamide], the IC50 in assay [1] is 220 nM; on ADAMTS4, > 50000 nM.

As for `Cc1nc(C2(CNC(=O)c3cnn(-c4ccc(F)cc4)n3)NC(=O)NC2=O)c(C)s1` (racemic) [Example 158, rac-N-{[4-(2,5-dimethyl-1,3-thiazol-4-yl)-2,5-dioxoimidazolidin-4-yl]methyl}-2-(4-fluorophenyl)-2H-1,2,3-triazole-4-carboxamide], the results for the IC50 (in assay [1]; on ADAMTS4) were 100 nM and 2800 nM, respectively.

On to `O=C1NC(=O)C(CNC(=O)c2cnn(-c3ccc(F)cc3)n2)(c2ccccn2)N1` (single isomer, unassigned) [Example 97, ent-N-{[2,5-dioxo-4-(pyridin-2-yl)imidazolidin-4-yl]methyl}-2-(4-fluorophenyl)-2H-1,2,3-triazole-4-carboxamide], for which the IC50 was 10 nM in assay [1] and 1900 nM at ADAMTS4.

Consider `O=C1NC(=O)[C@](CNC(=O)c2cnn(-c3ccc(OC(F)(F)F)cc3)n2)(C2CC2)N1` [Example 106, N-{[(4R)-4-cyclopropyl-2,5-dioxoimidazolidin-4-yl]methyl}-2-[4-(trifluoromethoxy)phenyl]-2H-1,2,3-triazole-4-carboxamide], for which the IC50 in assay [1] is 190 nM; on ADAMTS4, > 50000 nM.

`O=C1NC(=O)C(CNC(=O)c2cnn(-c3ccc(F)cc3)n2)(c2ncsc2C(F)(F)F)N1` (racemic) [Example 135, rac-N-({2,5-dioxo-4-[5-(trifluoromethyl)-1,3-thiazol-4-yl]imidazolidin-4-yl}methyl)-2-(4-fluorophenyl)-2H-1,2,3-triazole-4-carboxamide]: the IC50 in assay [1] is 48 nM; against ADAMTS4, 6600 nM.
